# Source: article PMC12521730, “Quantitative dual-isotope preclinical SPECT/CT imaging and biodistribution of the mercury-197m/g theranostic pair with [^197m/gHg]HgCl2 and a [^197m/gHg]Hg-tetrathiol complex as a platform for radiopharmaceutical development” (EJNMMI Radiopharmacy and Chemistry, 2025)
# Assay: Ex vivo biodistribution (gamma counter)
# Type: in vivo, healthy male C57BL/6 mice
# Conditions: 2 h post administration
# Experimental: For animal injection, the tracer was prepared at high molar activity. Radiolabeling of H4Tetrathiol (10^–2 M in DMSO; 40 μL for imaging, 20 μL for bioD) (or DMSO, for [^197m/gHg]HgCl2 mice) with [^197m/gHg]HgCl2 (imaging: 26.7 MBq total m + g, 62 μL; bioD: 13.04 MBq total m + g, 31 μL) was performed in a mixture of ammonium acetate buffer (1 M; pH 7; 198 μL for imaging or 149 μL for bioD) and 6 M NaOH (72 μL or 38 μL required to achieve a pH of 7.5 after addition of activity, for imaging or BioD labeling, respectively). The reaction was allowed to stand for 1 h at 37 °C and quantitative (> 99%) non-isolated percentage radiochemical yield (%RCY) was confirmed via the iTLC methods mentioned above. Further, 100 µL of the reaction was diluted with 50 µL of PBS Tween-20 (0.01 M sodium phosphate, 0.15 M NaCl, 0.05% Tween-20) for imaging mice, or 50 µL of the reaction was diluted with 100 µL of PBS Tween-20 for BioD mice. The tracers were prepared immediately before injection to avoid radiolysis and minimize the tracer loss to any surfaces due to its lipophilicity. The injected doses of each isomer, ^197mHg and ^197gHg, were quantified by measuring an aliquot of known volume of each tracer preparation via HPGe gamma spectroscopy and decay corrected for time of injection using the Eqs. (1) and (2).
# The study was conducted in compliance with the guidelines set by the Canadian Council on Animal Care (CCAC) and approved by the Animal Care Committee (ACC) at the University of British Columbia (A20-0132). A total of eight healthy male C57BL/6 mice weighing approximately 30 g for group 1 and 25 g for group 2 were used in the study. The mice were divided into two experimental groups: group 1 (n = 4) received free [^197m/gHg]HgCl2, while group 2 (n = 4) received [^197m/gHg]Hg-Tetrathiol. Within each group, one mouse was allocated for imaging, while the rest were designated for ex vivo biodistribution analysis. For SPECT imaging, the designated mice were anesthetized using isoflurane via a precision vaporizer. […] Once anesthetized, each imaging mouse received an intravenous (IV) injection via the lateral tail vein of 150 μL of [^197m/gHg]HgCl2 (0.492 MBq ^197mHg + 3.171 MBq ^197gHg) or [^197m/gHg]Hg-Tetrathiol (0.899 MBq ^197mHg + 4.230 MBq ^197gHg) in PBS Tween-20 (0.01 M Na Phosphate, 0.15 M NaCl, 0.05% Tween-20).
# Mice received an IV injection of [^197m/gHg]HgCl2 (0.275 MBq ^197mHg + 1.758 MBq ^197gHg, 150 μL) or [^197m/gHg]Hg-Tetrathiol (0.384 MBq ^197mHg + 1.733 MBq ^197gHg, 150 μL) (n = 3 per group) via the lateral tail vein using a Tailveiner restrainer. After the injection, the mice were returned to their experimental cages and allowed unrestricted movement. Biodistribution studies were conducted 2 h after administration. Mice were humanely euthanized with an overdose of isoflurane followed by cardiac puncture to collect blood pool activity. The organs of interest were fully extracted, cleaned of blood without rinsing, weighed, and analysed for radioactivity using a calibrated gamma counter with the 55–93 keV energy window for ^197gHg and the 110–160 keV energy window for ^197mHg (Packard Cobra II, Perkin Elmer, Waltham, MA, USA). The stomach and intestines were carefully cleaned prior to analysis to remove residual contents. For tissues and fluids that could not be fully removed (muscle, blood and bone) activity values were extrapolated based on standardised organ weights for age- and sex-matched mice tables to ensure accurate normalization (Davies and Morris [1993]; Foster et al. [2014]). The stomach and whole intestines were cleaned before analysis. The radioactivity measurements were decay corrected for time of injection using the Eqs. (1) and (2). The results are reported as the percentage of the injected activity per gram of tissue (%IA/g) and percentage of the injected activity per tissue (%IA/organ).
compound,measurement,setting,value
O=C(CC[S-])OCC(COC(=O)CC[S-])(COC(=O)CC[S-])COC(=O)CC[S-].[Hg+2] [[^197m/gHg]Hg-Tetrathiol],Animal 4 (%IA/g) g: heart,Hg-197g,0.72 %IA/g
same,Animal 4 (%IA/g) g: kidneys,Hg-197g,2.58 %IA/g
same,Animal 4 (%IA/g) g: large intestine,Hg-197g,0.04 %IA/g
same,Animal 4 (%IA/g) g: liver,Hg-197g,460.16 %IA/g
same,Animal 4 (%IA/g) g: lungs,Hg-197g,6.68 %IA/g
same,Animal 4 (%IA/g) g: muscle,Hg-197g,0.02 %IA/g
same,Animal 4 (%IA/g) g: pancreas,Hg-197g,0.05 %IA/g
same,Animal 4 (%IA/g) g: small intestine,Hg-197g,0.13 %IA/g
same,Animal 4 (%IA/g) g: spleen,Hg-197g,73.76 %IA/g
same,Animal 4 (%IA/g) g: stomach,Hg-197g,0.12 %IA/g
same,Animal 4 (%IA/g) g: tail,Hg-197g,5.66 %IA/g
same,Animal 4 (%IA/g) g: urine,Hg-197g,0.03 %IA/g
same,Average (%IA/Organ): bladder,Hg-197g,0.00 %IA/Organ
same,Average (%IA/Organ): blood,Hg-197g,0.16 %IA/Organ
same,Average (%IA/Organ): bone,Hg-197g,2.70 %IA/Organ
same,Average (%IA/Organ): brain,Hg-197g,0.01 %IA/Organ
same,Average (%IA/Organ): feces,Hg-197g,0.00 %IA/Organ
same,Average (%IA/Organ): heart,Hg-197g,0.09 %IA/Organ
same,Average (%IA/Organ): kidneys,Hg-197g,1.13 %IA/Organ
same,Average (%IA/Organ): large intestine,Hg-197g,0.02 %IA/Organ
same,Average (%IA/Organ): lungs,Hg-197g,0.97 %IA/Organ
same,Average (%IA/Organ): muscle,Hg-197g,0.19 %IA/Organ
same,Average (%IA/Organ): pancreas,Hg-197g,0.01 %IA/Organ
same,Average (%IA/Organ): small intestine,Hg-197g,0.02 %IA/Organ
same,Average (%IA/Organ): spleen,Hg-197g,4.17 %IA/Organ
same,Average (%IA/Organ): stomach,Hg-197g,0.04 %IA/Organ
same,Average (%IA/Organ): tail,Hg-197g,1.05 %IA/Organ
same,Average (%IA/Organ): urine,Hg-197g,0.00 %IA/Organ
same,Average Hg-197g (%IA/g): bladder,Hg-197g,0.049 %IA/g
same,Average Hg-197g (%IA/g): blood,Hg-197g,0.11 %IA/g
same,Average Hg-197g (%IA/g): bone,Hg-197g,1.42 %IA/g
same,Average Hg-197g (%IA/g): brain,Hg-197g,0.025 %IA/g
same,Average Hg-197g (%IA/g): feces,Hg-197g,0.023 %IA/g
same,Average Hg-197g (%IA/g): heart,Hg-197g,0.71 %IA/g
same,Average Hg-197g (%IA/g): kidneys,Hg-197g,2.96 %IA/g
same,Average Hg-197g (%IA/g): large intestine,Hg-197g,0.079 %IA/g
same,Average Hg-197g (%IA/g): liver,Hg-197g,202.37 %IA/g
same,Average Hg-197g (%IA/g): lungs,Hg-197g,7.10 %IA/g
same,Average Hg-197g (%IA/g): muscle,Hg-197g,0.017 %IA/g
same,Average Hg-197g (%IA/g): pancreas,Hg-197g,0.058 %IA/g
same,Average Hg-197g (%IA/g): small intestine,Hg-197g,0.11 %IA/g
same,Average Hg-197g (%IA/g): spleen,Hg-197g,64.43 %IA/g
same,Average Hg-197g (%IA/g): stomach,Hg-197g,0.37 %IA/g
same,Average Hg-197g (%IA/g): tail,Hg-197g,2.18 %IA/g
same,Average Hg-197g (%IA/g): urine,Hg-197g,0.029 %IA/g
same,Animal 1 (%IA/g) m: bladder,Hg-197m,0.05 %IA/g
same,Animal 1 (%IA/g) m: blood,Hg-197m,0.10 %IA/g
same,Animal 1 (%IA/g) m: bone,Hg-197m,2.09 %IA/g
same,Animal 1 (%IA/g) m: brain,Hg-197m,0.04 %IA/g
same,Animal 1 (%IA/g) m: feces,Hg-197m,0.04 %IA/g
same,Animal 1 (%IA/g) m: heart,Hg-197m,0.47 %IA/g
same,Animal 1 (%IA/g) m: kidneys,Hg-197m,5.53 %IA/g
same,Animal 1 (%IA/g) m: large intestine,Hg-197m,0.14 %IA/g
same,Animal 1 (%IA/g) m: lungs,Hg-197m,9.10 %IA/g
same,Animal 1 (%IA/g) m: muscle,Hg-197m,0.01 %IA/g
same,Animal 1 (%IA/g) m: pancreas,Hg-197m,0.06 %IA/g
same,Animal 1 (%IA/g) m: small intestine,Hg-197m,0.16 %IA/g
same,Animal 1 (%IA/g) m: spleen,Hg-197m,74.83 %IA/g
same,Animal 1 (%IA/g) m: stomach,Hg-197m,0.19 %IA/g
same,Animal 1 (%IA/g) m: tail,Hg-197m,1.72 %IA/g
same,Animal 1 (%IA/g) m: urine,Hg-197m,0.03 %IA/g
same,Animal 2 (%IA/g) m: bladder,Hg-197m,0.02 %IA/g
